Test systems include SF-295; UACC-62; M14; MDA-MB-231; PC-3; BT-549; OVCAR-5; HCC 2998; HL-60; HOP-62; HCT-15; A549; SW-620; SK-OV-3; EKVX; MCF7; RXF 393; Hs-578T; NCI-H522.
What all share (assay): NCI-60 cell line screen, 48 h

This is an account of results in ChEMBL document CHEMBL1201862, “PubChem BioAssay data set” (2004).

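Growth conditions: 96-well plates. Treatment: test compound, 48 hours, 5 concentrations. Analysis: linear interpolation between bracketing concentrations; unreached endpoints set to highest concentration. GI50 is the concentration that inhibits growth by half.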 Active and inactive are the calls of the source. Rule as the data show it: active = GI50 up to about 1.1 µM and inactive = higher.

Turning to `FC(F)(F)c1nc2ccc(SSc3ccc4nc(C(F)(F)F)[nH]c4c3)cc2[nH]1`, the GI50 was 4.41 µM (inactive) with SF-295; 73.8 µM (inactive) with UACC-62; 94.2 µM (inactive) in the experiment with M14; 23 µM (inactive) in the experiment on MDA-MB-231; 36.6 µM (inactive) in the experiment with PC-3; 92.7 µM (inactive) in the experiment on BT-549. Besides, the GI50 in the experiment with OVCAR-5 is > 100 µM (inactive); with HCC 2998, 38.3 µM (inactive); in the experiment on HL-60, 48.8 µM (inactive); in the experiment with HOP-62, 31.6 µM (inactive); with HCT-15 it was 93.5 µM; with A549 it was 42.3 µM (inactive). Also, the GI50 in the experiment with SW-620 was 61.1 µM (inactive); in the experiment with SK-OV-3 it was > 10 µM (inactive); in the experiment with EKVX, > 10 µM (inactive); in the experiment with MCF7 it was 35.7 µM (inactive); in the experiment with RXF 393, > 10 µM (inactive); with Hs-578T it was > 10 µM (inactive). Moreover, the GI50 in the experiment on NCI-H522 was 49 µM (inactive).

In the case of `CCc1nc(N)nc(N)c1-c1ccc(Cl)c([N+](=O)[O-])c1`, the GI50 was 0.0637 µM (active) in the experiment with SF-295; 0.0573 µM (active) with UACC-62; 0.0735 µM (active) in the experiment on M14; 24.4 µM (inactive) with MDA-MB-231; 0.0897 µM (active) in the experiment on PC-3; 31.2 µM (inactive) with BT-549. For the same compound, the GI50 with OVCAR-5 was 6.11 µM (inactive); with HCC 2998, 2.95 µM (inactive); in the experiment with HL-60, 0.053 µM (active); with HOP-62, 0.596 µM (active); in the experiment on HCT-15 it was 0.0685 µM; with A549, 0.0218 µM (active). The GI50 is 0.0475 µM (active) in the experiment with SW-620; 11.2 µM (inactive) with SK-OV-3; 3.38 µM (inactive) in the experiment on EKVX; 0.274 µM (active) in the experiment with MCF7; 10.8 µM (inactive) in the experiment on RXF 393; 28.1 µM (inactive) with Hs-578T. Besides, in the experiment with NCI-H522, the GI50 was 0.719 µM (active).

On to `CC(=O)C1(c2ccccc2)CCN(Cn2sc3nc(C)cc(C)c3c2=O)CC1`, for which the GI50 was > 100 µM (inactive) with SF-295; 28.9 µM (inactive) in the experiment with UACC-62; 25.8 µM (inactive) with M14; 33 µM (inactive) with MDA-MB-231; 37.6 µM (inactive) in the experiment on PC-3; 38.8 µM (inactive) with BT-549. The GI50 with OVCAR-5 is 19.5 µM (inactive); in the experiment on HCC 2998 it was 25 µM (inactive); with HL-60, 18.7 µM (inactive); in the experiment with HOP-62, 34.8 µM (inactive); in the experiment on HCT-15, 26.5 µM; in the experiment on A549, 64.7 µM (inactive). The GI50 with SW-620 is 24.4 µM (inactive); with SK-OV-3, 76.4 µM (inactive); in the experiment on EKVX it was 23.3 µM (inactive); with MCF7, 40 µM (inactive); with RXF 393, 20.8 µM (inactive); with Hs-578T, 30.4 µM (inactive). Also, the GI50 with NCI-H522 was 12.4 µM (inactive).

With `Nc1nc(CCl)nc(N2CCOCC2)n1`, the GI50 with SF-295 is 29.8 µM (inactive); in the experiment with UACC-62, 15.8 µM (inactive); in the experiment on M14 it was 27.1 µM (inactive); with MDA-MB-231, 28.9 µM (inactive); in the experiment with PC-3 it was 72.1 µM (inactive); in the experiment on BT-549 it was 31.7 µM (inactive). Moreover, the GI50 with OVCAR-5 was 19.9 µM (inactive); with HCC 2998, 17.7 µM (inactive); in the experiment on HL-60 it was 13.9 µM (inactive); in the experiment on HOP-62 it was 18.2 µM (inactive); with HCT-15, 16 µM; in the experiment with A549, > 100 µM (inactive). For the same compound, the GI50 in the experiment with SW-620 is 24.4 µM (inactive); in the experiment on SK-OV-3, 45.6 µM (inactive); in the experiment on EKVX it was 17.6 µM (inactive); in the experiment on MCF7, 28.6 µM (inactive); in the experiment on RXF 393, 36.6 µM (inactive); in the experiment on Hs-578T, 38.1 µM (inactive). The GI50 with NCI-H522 is 3.4 µM (inactive).
